This assay has as its target T1, DPPIV obtained from swine kidney (Sus scrofa, UniProt P22411).
T1 construct: DPPIV obtained from swine kidney; from tissue; host or cells: swine kidney
In words: Assay for the DPPIV-inhibiting activity. It is filed as biochemical. The following applies: DPPIV 10 mU/mL, Gly-Pro-p-nitroanilide 0.33 mM, absorbance 405 nm. The method, then: DPPIV obtained from swine kidney was dissolved in a reaction buffer (50 mM Tris-HCl (pH 7.4)/0.1% BSA) at a fmal concentration of 10 mU/mL. A 110 μL aliquot of this enzyme solution was added to the reaction system, and then 15 μL of an agent was added. The reaction solution was incubated at room temperature for 20 minutes. 25 μL of a solution containing 2 mM Gly-Pro-p-nitroanilide was added to the reaction solution (at the final concentration of 0.33 mM) to start the enzyme reaction. The reaction time was 20 minutes. 25 μL of 1N phosphate solution was added to stop the reaction. […] The degree of inhibition to the enzyme reaction was determined, and IC50 was computed based on the absorbance.

Structures can show the parent of a compound that is named as a salt. Where two headings read alike, the source gives them in different places.

The term IC50 denotes the concentration that gives 50% inhibition.

T1 sequence (P22411 whole entry): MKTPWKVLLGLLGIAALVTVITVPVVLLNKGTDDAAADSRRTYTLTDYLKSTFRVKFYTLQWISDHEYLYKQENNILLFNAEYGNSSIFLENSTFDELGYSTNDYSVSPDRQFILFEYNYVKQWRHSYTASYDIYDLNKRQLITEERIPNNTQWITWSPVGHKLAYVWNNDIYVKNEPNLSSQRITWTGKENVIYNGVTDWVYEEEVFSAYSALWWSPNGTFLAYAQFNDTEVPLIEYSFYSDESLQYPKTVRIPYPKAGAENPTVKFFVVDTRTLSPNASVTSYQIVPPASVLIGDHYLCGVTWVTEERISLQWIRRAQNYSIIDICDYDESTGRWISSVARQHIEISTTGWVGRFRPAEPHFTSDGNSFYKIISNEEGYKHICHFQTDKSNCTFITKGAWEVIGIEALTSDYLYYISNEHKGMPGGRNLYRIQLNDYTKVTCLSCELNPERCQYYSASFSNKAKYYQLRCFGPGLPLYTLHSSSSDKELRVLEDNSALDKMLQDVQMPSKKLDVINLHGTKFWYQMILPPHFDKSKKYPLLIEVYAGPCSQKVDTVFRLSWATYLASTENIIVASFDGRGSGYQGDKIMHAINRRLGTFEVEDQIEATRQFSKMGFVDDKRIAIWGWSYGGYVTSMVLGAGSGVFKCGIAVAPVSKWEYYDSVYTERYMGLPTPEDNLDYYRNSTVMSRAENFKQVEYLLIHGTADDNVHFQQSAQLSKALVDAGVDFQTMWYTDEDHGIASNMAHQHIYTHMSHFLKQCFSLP

In the case of `O=c1c2c(cnn1CCc1ccccc1)nc(N1CCNCC1)n2Cc1ccccc1` [Example 311, 3-Benzyl-5-(2-phenylethyl)-2-(piperazin-1-yl)-3,5-dihydroimidazo[4,5-d]pyridazin-4-one trifluoroacetate], it took 77.5 nM to reach half-maximal inhibition (IC50 (nM)) (IC50).

`CC#CCn1c(N2CCNCC2)nc2c1c(=O)n(CC(=O)c1ccccc1)c(=O)n2CC(=O)OC` [Example 415, Methyl[7-(2-butynyl)-2,6-dioxo-1-(2-oxo-2-phenylethyl)-8-(pipierazin-1-yl)-1,2,6,7-tetrahydropurin-3-yl]acetate trifluoroacetate]: where the note is “read-out: IC50”, the IC50 was found to be 1.81 nM.

Consider `C#CCn1c(=O)c2c(nc(N3CCNCC3)n2CC#CC)n(C)c1=O` [Example 357, 7-(2-Butynyl)-3-methyl-8-(piperazin-1-yl)-1-(2-propynyl)-3,7-dihydropurine-2,6-dione trifluoroacetate], for which the midpoint of inhibition (IC50 (nM)), the IC50, lay at 323 nM. On to `CC#CCn1c(N2CCNCC2)nc2c1c(=O)n(C)c(=O)n2CCOCC` [Example 407, 7-(2-Butynyl)-3-(2-ethoxyethyl)-1-methyl-8-(piperazin-1-yl)-3,7-dihydropurine-2,6-dione trifluoroacetate], for which the IC50 (read-out: IC50) was determined as 275 nM. On the same count and under the same terms, as for `CC#CCn1c(N2CCNCC2)nc2nc(SCC(=O)O)n(C)c(=O)c21` [Example 79, [7-(2-Butynyl)-1-methyl-6-oxo-8-(piperazin-1-yl)-6,7-dihydro-1H-purin-2-ylsulfanyl]acetic acid trifluoroacetate], the figure is 35.7 nM. Still for that read-out and setting: to `CC#CCn1c(N2CCNCC2)nc2c1c(=O)n(C)c(=O)n2CC(=O)c1ccccc1` [Example 404, 7-(2-Butynyl)-3-(2-oxo-2-phenethyl)-1-methyl-8-(piperazin-1-yl)-3,7-dihydropurine-2,6-dione trifluoroacetate] belongs 276 nM; to `CC#CCn1c(N2CCNCC2)nc2nc(SCCC)n(C)c(=O)c21` [Example 129, 7-(2-Butynyl)-1-methyl-8-(piperazin-1-yl)-2-propylsulfanyl-1,7-dihydropurin-6-one trifluoroacetate], 115 nM. On the same count and under the same terms, to `CC#CCn1c(N2CCNCC2)nc2nc(OC(C(=O)OC)c3ccccc3)n(C)c(=O)c21` (centres unmarked) [Example 4, trifluoroacetate] belongs 211 nM.

On to `CC#CCn1c(=O)c2c(nc(N3CCNCC3)n2CC#CC)n(C)c1=O` [Example 358, 1,7-bis(2-Butynyl)-3-methyl-8-(piperazin-1-yl)-3,7-dihydropurine-2,6-dione trifluoroacetate], for which, where the note is “IC50 (nM)”, the IC50 stood at 357 nM.

On to `CC#CCn1c(N2CCNCC2)nc2c1c(=O)n(C)c(=O)n2CC(=O)C(C)(C)C` [Example 409, 7-(2-Butynyl)-3-(3,3-dimethyl-2-oxobutyl)-1-methyl-8-(piperazin-1-yl)-3,7-dihydropurine-2,6-dione trifluoroacetate], for which, for the setting “read-out: IC50”, the IC50 was determined as 222 nM.

Compound `CC#CCn1c(N2CCNCC2)nc2c1c(=O)n(CCc1ccccc1)c(=O)n2CC(=O)Nc1ccccc1` [Example 421, 2-[7-(2-Butynyl)-2,6-dioxo-1-(2-phenethyl)-8-(piperazin-1-yl)-1,2,6,7-tetrahydropurin-3-yl]-N-phenylacetamide hydrochloride] returned a half-inhibitory concentration (IC50) (IC50 (nM)) of 3.37 nM.

As to `CC#CCn1c(N2CCNCC2)nc2c1c(=O)n(CC(=O)c1ccccc1)c(=O)n2C` [Example 361, 7-(2-Butynyl)-3-methyl-1-[(2-oxo-2-phenyl)ethyl]-8-(piperazin-1-yl)-3,7-dihydropurine-2,6-dione trifluoroacetate], where the note is “read-out: IC50”, the IC50 was determined as 0.654 nM.

For `CC#CCn1c(N2CCNCC2)nc2c1c(=O)n(C)c(=O)n2C(C)C(=O)OCC` (centres unmarked) [Example 405, Ethyl 2-[7-(2-butynyl)-1-methyl-2,6-dioxo-8-(piperazin-1-yl)-1,2,6,7-tetrahydropurin-3-yl]propionate trifluoroacetate], the IC50 (read-out: IC50) was 359 nM.

Turning to `CC#CCn1c(N2CCNCC2)nc2cnn(C)c(=O)c21` [Example 115, 3-(2-Butynyl)-5-methyl-2-(piperazin-1-yl)-3,5-dihydroimidazo[4,5-d]pyridazin-4-one trifluoroacetate], the half-inhibitory concentration (IC50) (read-out: IC50) is 185 nM. Still for that read-out and setting: as for `CC#CCn1c(N2CCNCC2)nc2c1c(=O)n(CC(=O)OC)c(=O)n2C` [Example 355, Methyl[7-(2-butynyl)-3-methyl-2,6-dioxo-8-(piperazin-1-yl)-2,3,6,7-tetrahydropurin-1-yl]acetate trifluoroacetate], the figure is 147 nM. For the compound `CC#CCn1c(N2CCNCC2)nc2c1c(=O)n(CCc1ccccc1)c(=O)n2CC(=O)N1CCCC1` [Example 418, 7-(2-Butynyl)-3-[2-oxo-2-(pyrrolidin-1-yl)ethyl]-1-(2-phenethyl)-8-(piperazin-1-yl)-3,7-dihydro purine-2,6-dione hydrochloride], the IC50 (IC50 (nM)) stood at 1.14 nM. Turning to `CC#CCn1c(N2CCNCC2)nc2ccn(CC(=O)c3ccccc3)c(=O)c21` [Example 341, 3-(2-Butynyl)-5-(2-oxo-2-phenylethyl)-2-(piperazin-1-yl)-3,5-dihydroimidazo[4,5-c]pyridin-4-one trifluoroacetate], the IC50 (read-out: IC50) amounted to 7.32 nM. With `Cn1c(=O)n(CCc2ccccc2)c(=O)c2c1nc(N1CCNCC1)n2-c1ccccc1Cl` [Example 377, 7-(2-Chlorophenyl)-3-methyl-1-(2-phenethyl)-8-(piperazin-1-yl)-3,7-dihydropurine-2,6-dione trifluoroacetate], where the note is “read-out: IC50”, the half-inhibitory concentration (IC50) amounted to 8.77 nM. The same measure, in the same setting: to `CC#CCn1c(N2CCNCC2)nc2c1c(=O)n(CC(=O)c1ccccc1)c(=O)n2CCOCC` [Example 413, 7-(2-Butynyl)-3-(2-ethoxyethyl)-1-(2-oxo-2-phenylethyl-8-(piperazin-1-yl)-3,7-dihydropurine-2,6-dione trifluoroacetate] belongs 1.95 nM. The compound `CC#CCn1c(N2CCNCC2)nc2c1c(=O)n(CCc1ccccc1)c(=O)n2C` [Example 367, 7-(2-Butynyl)-3-methyl-1-(2-phenylethyl)-8-(piperazin-1-yl)-3,7-dihydropurine-2,6-dione trifluoroacetate] registered an IC50 (IC50 (nM)) of 4.56 nM. Same read-out and setting: as for `CC#CCn1c(N2CCNCC2)nc2c1c(=O)n(C)c(=O)n2CCC` [Example 403, 7-(2-Butynyl)-3-propyl-1-methyl-8-(piperazin-1-yl)-3,7-dihydropurine-2,6-dione trifluoroacetate], the figure is 266 nM.

Regarding `CC#CCn1c(N2CCNCC2)nc2nc(OC3(C(=O)OCC)CC3)n(C)c(=O)c21` [Example 16], the IC50 (read-out: IC50) was determined as 272 nM. As to `CC#CCn1c(N2CCNCC2)nc2c1c(=O)n(C)c(=O)n2CC(=O)OC` [Example 398, Methyl[7-(2-butynyl)-1-methyl-2,6-dioxo-8-(piperazin-1-yl)-1,2,6,7-tetrahydropurin-3-yl]acetate trifluoroacetate], the IC50 (read-out: IC50) came out at 237 nM.

For `C#CCNC(=O)Cn1c(=O)n(CCc2ccccc2)c(=O)c2c1nc(N1CCNCC1)n2CC#CC` [Example 422, 2-[7-(2-Butynyl)-2,6-dioxo-1-(2-phenethyl)-8-(piperazin-1-yl)-1,2,6,7-tetrahydropurin-3-yl]-N-(2-propynyl) acetamide hydrochloride], the half-maximal inhibitory concentration (IC50) (IC50 (nM)) turned out to be 0.472 nM. Take `CC#CCn1c(N2CCNCC2)nc2c1c(=O)n(C)c(=O)n2CC1CCCO1` (centres unmarked) [Example 400, 7-(2-Butynyl)-3-(2-tetrahydrofuranyl)methyl-1-methyl-8-(piperazin-1-yl)-3,7-dihydropurine-2,6-dione trifluoroacetate]: the IC50 (read-out: IC50) was 183 nM. Regarding `CC#CCn1c(N2CCNCC2)nc2c1c(=O)n(C)c(=O)n2C(C)C` [Example 408, 7-(2-Butynyl)-3-isopropyl-1-methyl-8-(piperazin-1-yl)-3,7-dihydropurine-2,6-dione trifluoroacetate], the IC50 (read-out: IC50) is 340 nM.

The compound `CC#CCn1c(N2CCNCC2)nc2c1c(=O)n(C)c(=O)n2CC` [Example 396, 7-(2-Butynyl)-3-ethyl-1-methyl-8-(piperazin-1-yl)-3,7-dihydropurine-2,6-dione trifluoroacetate] registered an IC50 (IC50 (nM)) of 197 nM. Consider `CC#CCn1c(N2CCNCC2)nc2c1c(=O)n(CCc1ccccc1)c(=O)n2CC(=O)NC1CC1` [Example 420, 2-[7-(2-Butynyl)-2,6-dioxo-1-(2-phenethyl)-8-(piperazin-1-yl)-1,2,6,7-tetrahydropurin-3-yl]-N-cyclopropyl acetamide hydrochloride], for which the IC50 (IC50 (nM)) is 1.7 nM. Take `CC#CCn1c(N2CCNCC2)nc2nc(C(N)=O)n(C)c(=O)c21` [Example 83, 7-(2-Butynyl)-1-methyl-6-oxo-8-(piperazin-1-yl)-6,7-dihydro-1H-purine-2-carboxamide]: the IC50 (read-out: IC50) was 27.4 nM.

Take `CC#CCn1c(N2CCNCC2)nc2c1c(=O)n(CCc1ccccc1)c(=O)n2CC(=O)NC` [Example 419, 2-[7-(2-Butynyl)-2,6-dioxo-1-(2-phenethyl)-8-(piperazin-1-yl)-1,2,6,7-tetrahydropurin-3-yl]-N-methylacetamide hydrochloride]: the 50% inhibitory concentration (IC50) (IC50 (nM)) amounted to 1.55 nM. `CC#CCn1c(N2CCNCC2)nc2nc(Oc3ccccc3C(N)=O)n(Cc3ccc(C#N)cc3)c(=O)c21` [Example 235, 2-[7-(2-Butynyl)-1-(4-cyanobenzyl-6-oxo-8-(piperazin-1-yl)-6,7-dihydro-1H-purin-2-yloxy]benzamide trifluoroacetate]: the IC50 (read-out: IC50) is 1.44 nM. Still for that read-out and setting: as for `CC#CCn1c(N2CCNCC2)nc2c1c(=O)n(C)c(=O)n2C(C(=O)OC)c1ccccc1` (centres unmarked) [Example 402, Methyl[7-(2-butynyl)-1-methyl-2,6-dioxo-8-(piperazin-1-yl)-1,2,6,7-tetrahydropurin-3-yl]phenylacetate trifluoroacetate], the figure is 354 nM.

Source of the values: US20060094722A1 (Eisai Co., Ltd., priority 2002, published 2006).
